Results on 2 compounds are retold here after US20110152342A1, “STABILIZED PHARMACEUTICAL COMPOSITION” (priority 2008, published 2011).

The structures appear in SMILES notation.

This series is described as follows: Critical relative humidity of sugar alcohols determined at 37° C. Particulars: lowest humidity at which an increase in moisture content is observed after 72 hours. It counts as physicochemical. Here is the method:
As such sugar alcohol, preferably used herein include those having a critical relative humidity as determined at 37° C. of not less than 70% and further preferably used herein are those having a critical relative humidity as determined at 37° C. of not less than 85%. […] For instance, the critical relative humidity can be determined by introducing samples (obtained after drying at 80° C. overnight) of about 1 g each into weighing bottles, placing them in thermo-hygrostats which have been set at the following relative humidity (RH) values: 37° C./40% RH, 37° C./45% RH, 37° C./55% RH, 37° C./65% RH, 37° C./70% RH, 37° C./75% RH, 37° C./80% RH, 37° C./85% RH, 37° C./90% RH, 37° C./95% RH and 37° C./98% RH, respectively (all of the chambers are of the same type: ETAC FX201P), allowing them to stand under such conditions over 72 hours, calculating the increase in the moisture content of each sample at this stage, and determining the lowest humidity at which an increase in the moisture content is observed, the resulting lowest humidity being defined to be the critical relative humidity of the sugar alcohol thus tested. […] The examples of such sugar alcohols having a critical relative humidity, as determined at 37° C., of not less than 70% are erythritol, xylitol, mannitol, maltitol, lactitol, and the like. […]

`OC[C@@H](O)[C@@H](O)[C@H](O)[C@H](O)CO` [mannitol]: the critical relative humidity entry is listed as “not less than 98%”. For `OC[C@@H](O)[C@@H](O)[C@H](O)[C@@H](O)CO` [sorbitol], the critical relative humidity is recorded as 65%.
